# Experimental data as given in patent US10750743B2, “Pyridazinone herbicides” (E.I. DU PONT DE NEMOURS AND COMPANY, priority 2015, dated 2020).
# Columns and labels:
# Type in all cases: in vivo
# [1] = system: kochia (Kochia scoparia); experiment: Test A preemergence, directed soil spray, visual injury rating; details: Bassia scoparia, pre-emergence, 240 h, 0 is no effect, 100 is complete control, read-out: Plant response rating (0 to 100 scale), Kochia; for pest or weed control at 125 g/ha: 125 g ai/ha; for pest or weed control at 500 g/ha: 500 g ai/ha
# Outline: (§1)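 Seeds sown in a loam soil–sand blend received a directed preemergence soil spray of test chemical in a non-phytotoxic solvent mixture with surfactant. Postemergence plants were sprayed at 2 to 10 cm, one- to two-leaf stage. After approximately 10 d in greenhouse, injury was visually rated 0 (no effect) to 100 (complete control) against untreated controls.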
# [2] = system: foxtail, giant (giant foxtail, Setaria faberii); experiment: as above; details: Setaria faberi, pre-emergence, 240 h, 0 is no effect, 100 is complete control, read-out: Plant response rating (0 to 100 scale), Foxtail, Giant; for pest or weed control at 125 g/ha: 125 g ai/ha; for pest or weed control at 500 g/ha: 500 g ai/ha
# Outline: as §1
# [3] = system: ragweed (common ragweed, Ambrosia elatior); experiment: as above; details: Ambrosia artemisiifolia, pre-emergence, 240 h, 0 is no effect, 100 is complete control, read-out: Plant response rating (0 to 100 scale), Ragweed; for pest or weed control at 125 g/ha: 125 g ai/ha; for pest or weed control at 500 g/ha: 500 g ai/ha
# Outline: as §1
# [4] = system: barnyardgrass (Echinochloa crus-galli); experiment: as above; details: Echinochloa crus-galli, pre-emergence, 240 h, 0 is no effect, 100 is complete control, read-out: Plant response rating (0 to 100 scale), Barnyardgrass; for pest or weed control at 125 g/ha: 125 g ai/ha; for pest or weed control at 500 g/ha: 500 g ai/ha
# Outline: as §1
# [5] = system: pigweed (Amaranthus retroflexus); experiment: as above; details: Amaranthus retroflexus, pre-emergence, 240 h, 0 is no effect, 100 is complete control, read-out: Plant response rating (0 to 100 scale), Pigweed; for pest or weed control at 125 g/ha: 125 g ai/ha; for pest or weed control at 500 g/ha: 500 g ai/ha
# Outline: as §1
# [6] = system: ryegrass, It. (Italian ryegrass, Lolium multiflorum); experiment: as above; details: Lolium multiflorum, pre-emergence, 240 h, 0 is no effect, 100 is complete control, read-out: Plant response rating (0 to 100 scale), Ryegrass, It.; for pest or weed control at 125 g/ha: 125 g ai/ha; for pest or weed control at 500 g/ha: 500 g ai/ha
# Outline: as §1
# [7] = system: kochia (Kochia scoparia); experiment: Test A postemergence application, visual injury rating; details: Bassia scoparia, post-emergence, 240 h, 0 to 100 scale, 0 no effect, 100 complete control, read-out: Kochia plant response rating; for pest or weed control at 125 g/ha: 125 g ai/ha; for pest or weed control at 500 g/ha: 500 g ai/ha
# Outline: as §1
# [8] = system: foxtail, giant (giant foxtail, Setaria faberii); experiment: as above; details: Setaria faberi, post-emergence, 240 h, 0 to 100 scale, 0 no effect, 100 complete control, read-out: Foxtail, Giant plant response rating; for pest or weed control at 125 g/ha: 125 g ai/ha; for pest or weed control at 500 g/ha: 500 g ai/ha
# Outline: as §1
# [9] = system: wheat (Triticum aestivum); experiment: as above; details: Triticum aestivum, post-emergence, 240 h, 0 to 100 scale, 0 no effect, 100 complete control, read-out: Wheat plant response rating; for plant injury at 125 g/ha: 125 g ai/ha; for plant injury at 500 g/ha: 500 g ai/ha
# Outline: as §1
# [10] = system: ragweed (common ragweed, Ambrosia elatior); experiment: as above; details: Ambrosia artemisiifolia, post-emergence, 240 h, 0 to 100 scale, 0 no effect, 100 complete control, read-out: Ragweed plant response rating; for pest or weed control at 125 g/ha: 125 g ai/ha; for pest or weed control at 500 g/ha: 500 g ai/ha
# Outline: as §1
# [11] = system: barnyardgrass (Echinochloa crus-galli); experiment: as above; details: Echinochloa crus-galli, post-emergence, 240 h, 0 to 100 scale, 0 no effect, 100 complete control, read-out: Barnyardgrass plant response rating; for pest or weed control at 125 g/ha: 125 g ai/ha; for pest or weed control at 500 g/ha: 500 g ai/ha
# Outline: as §1
# [12] = system: pigweed (Amaranthus retroflexus); experiment: as above; details: Amaranthus retroflexus, post-emergence, 240 h, 0 to 100 scale, 0 no effect, 100 complete control, read-out: Pigweed plant response rating; for pest or weed control at 125 g/ha: 125 g ai/ha; for pest or weed control at 500 g/ha: 500 g ai/ha
# Outline: as §1
# [13] = system: galium (catchweed bedstraw, Galium aparine); experiment: as above; details: Galium, post-emergence, 240 h, 0 to 100 scale, 0 no effect, 100 complete control, read-out: Galium plant response rating; for pest or weed control at 125 g/ha: 125 g ai/ha; for pest or weed control at 500 g/ha: 500 g ai/ha
# Outline: as §1
# [14] = system: corn (Zea mays); experiment: as above; details: Zea mays, post-emergence, 240 h, 0 to 100 scale, 0 no effect, 100 complete control, read-out: Corn plant response rating; for plant injury at 125 g/ha: 125 g ai/ha; for plant injury at 500 g/ha: 500 g ai/ha
# Outline: as §1
# [15] = system: blackgrass (Alopecurus myosuroides); experiment: as above; details: Alopecurus myosuroides, post-emergence, 240 h, 0 to 100 scale, 0 no effect, 100 complete control, read-out: Blackgrass plant response rating; for pest or weed control at 125 g/ha: 125 g ai/ha; for pest or weed control at 500 g/ha: 500 g ai/ha
# Outline: as §1
# [16] = system: ryegrass, It. (Italian ryegrass, Lolium multiflorum); experiment: as above; details: Lolium multiflorum, post-emergence, 240 h, 0 to 100 scale, 0 no effect, 100 complete control, read-out: Ryegrass, It. plant response rating; for pest or weed control at 125 g/ha: 125 g ai/ha; for pest or weed control at 500 g/ha: 500 g ai/ha
# Outline: as §1
# [17] = system: ducksalad (Heteranthera limosa); experiment: Test B flooded paddy test, visual rating; details: Heteranthera limosa, 360 h; Flood, 250 g ai/ha, applied to paddy water, rated after 13 to 15 d; read-out: Ducksalad plant response rating (0 to 100 scale, 0 is no effect, 100 is complete control)
# Outline: (§2)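 Plants at the 2-leaf stage were flooded to 3 cm above soil, and test compounds were applied directly into the paddy water, which was held at that depth throughout. After 13 to 15 d in a greenhouse, injury was rated visually against untreated controls on a 0–100 scale (0 no effect, 100 complete control).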
# [18] = system: rice (Oryza sativa); experiment: Test B flooded paddy test, visual rating; details: Oryza sativa, 360 h; Flood, 250 g ai/ha, applied to paddy water, rated after 13 to 15 d; read-out: Rice plant response rating (0 to 100 scale, 0 is no effect, 100 is complete control)
# Outline: as §2
# [19] = system: sedge, umbrella (small-flower umbrella sedge, Cyperus difformis); experiment: Test B flooded paddy test, visual rating; details: Cyperus difformis, 360 h; Flood, 250 g ai/ha, applied to paddy water, rated after 13 to 15 d; read-out: Sedge, Umbrella plant response rating (0 to 100 scale, 0 is no effect, 100 is complete control)
# Outline: as §2
SMILES,pest or weed control at 125 g/ha [1] [%],pest or weed control at 500 g/ha [1] [%],pest or weed control at 125 g/ha [2] [%],pest or weed control at 500 g/ha [2] [%],pest or weed control at 125 g/ha [3] [%],pest or weed control at 500 g/ha [3] [%],pest or weed control at 125 g/ha [4] [%],pest or weed control at 500 g/ha [4] [%],pest or weed control at 125 g/ha [5] [%],pest or weed control at 500 g/ha [5] [%],pest or weed control at 125 g/ha [6] [%],pest or weed control at 500 g/ha [6] [%],pest or weed control at 125 g/ha [7] [%],pest or weed control at 500 g/ha [7] [%],pest or weed control at 125 g/ha [8] [%],pest or weed control at 500 g/ha [8] [%],plant injury at 125 g/ha [9] [%],plant injury at 500 g/ha [9] [%],pest or weed control at 125 g/ha [10] [%],pest or weed control at 500 g/ha [10] [%],also measured
"CC(=O)Oc1c(C)nn(C)c(=O)c1-c1c(C)ccc2cc(C)oc12 [Compound 11, 5-(acetyloxy)-4-(2,6-dimethyl-7-benzofuranyl)-2,6-dimethyl-3(2H)-pyridazinone]",90,100,50,100,90,100,50,100,100,100,100,100,100,100,60,80,0,40,100,100,pest or weed control at 125 g/ha [11]: 30%; pest or weed control at 500 g/ha [11]: 60%; pest or weed control at 125 g/ha [12]: 90%; pest or weed control at 500 g/ha [12]: 100%; pest or weed control at 125 g/ha [13]: 90%; pest or weed control at 500 g/ha [13]: 90%; plant injury at 125 g/ha [14]: 0%; plant injury at 500 g/ha [14]: 30%; pest or weed control at 125 g/ha [15]: 60%; pest or weed control at 500 g/ha [15]: 90%; pest or weed control at 125 g/ha [16]: 100%; pest or weed control at 500 g/ha [16]: 100%; pest or weed control at 250 g/ha [17]: 0%; plant injury at 250 g/ha [18]: 0%; pest or weed control at 250 g/ha [19]: 0%
"Cc1cc2cccc(-c3c(O)c(C)nn(C)c3=O)c2o1 [Compound 12, 5-hydroxy-2,6-dimethyl-4-(2-methyl-7-benzofuranyl)-3(2H)-pyridazinone]",60,100,10,60,60,80,0,50,60,100,100,100,0,50,20,40,0,20,40,80,pest or weed control at 125 g/ha [11]: 10%; pest or weed control at 500 g/ha [11]: 30%; pest or weed control at 125 g/ha [12]: 30%; pest or weed control at 500 g/ha [12]: 50%; pest or weed control at 125 g/ha [13]: 80%; pest or weed control at 500 g/ha [13]: 90%; plant injury at 125 g/ha [14]: 0%; plant injury at 500 g/ha [14]: 10%; pest or weed control at 125 g/ha [15]: 40%; pest or weed control at 500 g/ha [15]: 80%; pest or weed control at 125 g/ha [16]: 90%; pest or weed control at 500 g/ha [16]: 100%; pest or weed control at 250 g/ha [17]: 0%; plant injury at 250 g/ha [18]: 0%; pest or weed control at 250 g/ha [19]: 0%
